Results on 5 compounds are retold here after patent publication US9062124B2, “GIP-based mixed agonists for treatment of metabolic disorders and obesity” (priority 2008, dated 2015).

Type in all cases: cell-based
The target of one assay is T1, glucagon receptor (Homo sapiens, UniProt P47871).
T1 construct: expressed in transfected cells; host or cells: HEK293
The experiment in a line: cAMP synthesis functional assay (firefly luciferase reporter in HEK293 cells), glucagon receptor. To be noted: for EC50: Glucagon Receptor EC50, cAMP luciferase reporter assay as in Example 16; for Glucagon Receptor relative activity: relative to the standard (Std.) EC50 of the same run. (Reporter assays use an easily measured gene product as a stand-in for the process of interest.)

The target in a further assay is T2, GLP-1 receptor (Homo sapiens, UniProt P43220).
T2 construct: expressed in transfected cells; host or cells: HEK293
T2 sequence (P43220 24-463, species assumed): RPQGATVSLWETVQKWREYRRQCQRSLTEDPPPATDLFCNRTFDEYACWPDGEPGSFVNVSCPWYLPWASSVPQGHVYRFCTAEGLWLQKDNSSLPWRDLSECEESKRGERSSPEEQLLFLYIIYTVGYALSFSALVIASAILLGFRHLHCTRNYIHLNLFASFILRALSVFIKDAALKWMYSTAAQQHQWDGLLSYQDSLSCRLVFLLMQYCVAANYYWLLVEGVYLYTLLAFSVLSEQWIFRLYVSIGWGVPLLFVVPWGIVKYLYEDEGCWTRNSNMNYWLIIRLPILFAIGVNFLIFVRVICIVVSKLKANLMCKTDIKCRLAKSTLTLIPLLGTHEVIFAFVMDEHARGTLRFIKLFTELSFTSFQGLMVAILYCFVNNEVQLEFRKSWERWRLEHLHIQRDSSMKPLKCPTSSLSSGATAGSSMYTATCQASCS
The experiment in a line: cAMP synthesis functional assay (firefly luciferase reporter in HEK293 cells), GLP-1 receptor. To be noted: for EC50: GLP-1 Receptor EC50, cAMP luciferase reporter assay as in Example 16; for GLP-1 Receptor relative activity: relative to the standard (Std.) EC50 of the same run.

The target of another assay is T3, GIP receptor (Homo sapiens, UniProt P48546).
T3 construct: expressed in transfected cells; host or cells: HEK293
T3 sequence (P48546 22-466): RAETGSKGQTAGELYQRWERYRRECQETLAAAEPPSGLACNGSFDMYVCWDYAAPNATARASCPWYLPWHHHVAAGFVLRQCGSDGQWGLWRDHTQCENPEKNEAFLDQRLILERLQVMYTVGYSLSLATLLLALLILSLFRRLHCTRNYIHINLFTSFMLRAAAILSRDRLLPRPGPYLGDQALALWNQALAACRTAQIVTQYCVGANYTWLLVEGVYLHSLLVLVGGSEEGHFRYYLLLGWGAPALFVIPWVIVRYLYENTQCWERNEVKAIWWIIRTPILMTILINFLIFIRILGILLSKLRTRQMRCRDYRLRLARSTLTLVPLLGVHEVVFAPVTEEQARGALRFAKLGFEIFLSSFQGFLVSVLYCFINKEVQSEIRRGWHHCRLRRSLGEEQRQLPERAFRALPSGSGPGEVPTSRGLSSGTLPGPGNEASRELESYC
The assay is described as follows: cAMP synthesis functional assay (firefly luciferase reporter in HEK293 cells), GIP receptor. To be noted: for EC50: GIP Receptor EC50, cAMP luciferase reporter assay as in Example 16; for GIP Receptor relative activity: relative to the standard (Std.) EC50 of the same run.

Assay [1] deals with glucagon receptor, GLP-1 receptor or GIP receptor. The experiment in a line: Agonist profile across receptors assigned from the cAMP reporter assay data. To be noted: assigned from the in vitro EC50 data of Tables 1-4.

Structures are written as SMILES.

T1 sequence (P47871 26-477): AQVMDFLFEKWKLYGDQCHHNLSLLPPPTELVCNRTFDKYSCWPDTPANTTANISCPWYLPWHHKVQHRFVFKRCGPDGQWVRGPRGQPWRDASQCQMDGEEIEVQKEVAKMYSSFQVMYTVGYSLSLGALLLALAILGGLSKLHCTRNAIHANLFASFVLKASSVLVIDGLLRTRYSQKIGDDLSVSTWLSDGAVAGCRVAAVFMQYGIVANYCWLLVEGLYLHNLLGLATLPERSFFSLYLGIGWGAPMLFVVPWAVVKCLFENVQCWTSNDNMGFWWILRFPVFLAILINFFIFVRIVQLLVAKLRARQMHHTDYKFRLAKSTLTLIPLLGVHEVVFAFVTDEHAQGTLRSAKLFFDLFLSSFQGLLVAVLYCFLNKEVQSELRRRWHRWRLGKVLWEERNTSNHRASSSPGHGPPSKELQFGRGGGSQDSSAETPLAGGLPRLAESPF

`CCCCCCCCCCCCCCCC(=O)NCCCC[C@H](NC(=O)[C@H](CO)NC(=O)[C@@H]1CCCN1C(=O)[C@@H]1CCCN1C(=O)[C@@H]1CCCN1C(=O)[C@H](C)NC(=O)CNC(=O)[C@H](CO)NC(=O)[C@H](CO)NC(=O)[C@@H]1CCCN1C(=O)CNC(=O)CNC(=O)[C@H](C)NC(=O)[C@H](CC(C)C)NC(=O)[C@H](CC(C)C)NC(=O)[C@H](Cc1c[nH]c2ccccc12)NC(=O)[C@H](CS)NC(=O)[C@@H](NC(=O)[C@H](Cc1ccccc1)NC(=O)[C@H](CCC(=O)O)NC(=O)C(C)(C)NC(=O)[C@H](C)NC(=O)[C@H](C)NC(=O)[C@H](CCC(N)=O)NC(=O)[C@H](CCCCN)NC(=O)[C@H](CC(=O)O)NC(=O)[C@H](CC(C)C)NC(=O)[C@H](Cc1ccc(O)cc1)NC(=O)[C@@H](NC(=O)[C@H](CO)NC(=O)[C@H](Cc1ccc(O)cc1)NC(=O)[C@H](CC(=O)O)NC(=O)[C@H](CO)NC(=O)[C@@H](NC(=O)[C@H](Cc1ccccc1)NC(=O)[C@@H](NC(=O)CNC(=O)[C@H](CCC(N)=O)NC(=O)C(C)(C)NC(=O)[C@@H](N)Cc1ccc(O)cc1)[C@@H](C)O)[C@@H](C)O)[C@@H](C)CC)C(C)C)C(N)=O` [mt-287]: on glucagon receptor, the concentration for a half-maximal effect (EC50) (commonly the concentration needed to bring the measured effect to its halfway point) came out at 0.0187 nM and the “Glucagon Receptor relative activity” value came to 277.54%. On GLP-1 receptor, the EC50 was 0.0124 nM and the “GLP-1 Receptor relative activity” value turned out to be 94.35%. For the same compound, on GIP receptor, the EC50 is 0.0093 nM and the “GIP Receptor relative activity” value came out at 117.20%. Also, the “receptor activity profile (glucagon / GLP-1 / GIP agonism)” value in assay [1] was “exhibited activity at the GIP, GLP-1, and glucagon receptors”.

With `CCCCCCCCCCCCCCCCCC(=O)NCCCC[C@H](NC(=O)[C@H](CO)NC(=O)[C@@H]1CCCN1C(=O)[C@@H]1CCCN1C(=O)[C@@H]1CCCN1C(=O)[C@H](C)NC(=O)CNC(=O)[C@H](CO)NC(=O)[C@H](CO)NC(=O)[C@@H]1CCCN1C(=O)CNC(=O)CNC(=O)[C@H](C)NC(=O)[C@H](CC(C)C)NC(=O)[C@H](CC(C)C)NC(=O)[C@H](Cc1c[nH]c2ccccc12)NC(=O)[C@H](CS)NC(=O)[C@@H](NC(=O)[C@H](Cc1ccccc1)NC(=O)[C@H](CCC(=O)O)NC(=O)C(C)(C)NC(=O)[C@H](C)NC(=O)[C@H](C)NC(=O)[C@H](CCC(N)=O)NC(=O)[C@H](CCCCN)NC(=O)[C@H](CC(=O)O)NC(=O)[C@H](CC(C)C)NC(=O)[C@H](Cc1ccc(O)cc1)NC(=O)[C@@H](NC(=O)[C@H](CO)NC(=O)[C@H](Cc1ccc(O)cc1)NC(=O)[C@H](CC(=O)O)NC(=O)[C@H](CO)NC(=O)[C@@H](NC(=O)[C@H](Cc1ccccc1)NC(=O)[C@@H](NC(=O)CNC(=O)[C@H](CCC(N)=O)NC(=O)C(C)(C)NC(=O)[C@@H](N)Cc1ccc(O)cc1)[C@@H](C)O)[C@@H](C)O)[C@@H](C)CC)C(C)C)C(N)=O` [mt-288], on glucagon receptor, the EC50 was determined as 0.0207 nM and the “Glucagon Receptor relative activity” value is 250.72%. At GLP-1 receptor, the EC50 worked out at 0.0138 nM and the “GLP-1 Receptor relative activity” value amounted to 84.78%. Besides, on GIP receptor, a half-maximal effect (EC50) was put at 0.0137 nM and the “GIP Receptor relative activity” value turned out to be 79.56%. The “receptor activity profile (glucagon / GLP-1 / GIP agonism)” value in assay [1] is “exhibited activity at the GIP, GLP-1, and glucagon receptors”.

For `CC[C@H](C)[C@H](NC(=O)[C@H](CO)NC(=O)[C@H](Cc1ccc(O)cc1)NC(=O)[C@H](CC(=O)O)NC(=O)[C@H](CO)NC(=O)[C@@H](NC(=O)[C@H](Cc1ccccc1)NC(=O)[C@@H](NC(=O)CNC(=O)[C@H](CCC(N)=O)NC(=O)C(C)(C)NC(=O)[C@@H](N)Cc1ccc(O)cc1)[C@@H](C)O)[C@@H](C)O)C(=O)N[C@@H](Cc1ccc(O)cc1)C(=O)N[C@@H](CC(C)C)C(=O)N[C@@H](CC(=O)O)C(=O)N[C@@H](CCCCN)C(=O)N[C@@H](CCC(N)=O)C(=O)N[C@@H](C)C(=O)N[C@@H](C)C(=O)NC(C)(C)C(=O)N[C@@H](CCC(=O)O)C(=O)N[C@@H](Cc1ccccc1)C(=O)N[C@H](C(=O)N[C@@H](CS)C(=O)N[C@@H](Cc1c[nH]c2ccccc12)C(=O)N[C@@H](CC(C)C)C(=O)N[C@@H](CC(C)C)C(=O)N[C@@H](C)C(=O)NCC(=O)NCC(=O)N1CCC[C@H]1C(=O)N[C@@H](CO)C(=O)N[C@@H](CO)C(=O)NCC(=O)N[C@@H](C)C(=O)N1CCC[C@H]1C(=O)N1CCC[C@H]1C(=O)N1CCC[C@H]1C(=O)N[C@@H](CO)C(=O)N[C@@H](CCCCN)C(N)=O)C(C)C` [mt-289], on glucagon receptor, the EC50 was determined as 0.0766 nM and the “Glucagon Receptor relative activity” value is reported as 67.75%. Moreover, on GLP-1 receptor, the half-maximal effective concentration (EC50) worked out at 0.0144 nM and the “GLP-1 Receptor relative activity” value was 81.25%. Further, at GIP receptor, the midpoint of the response, the EC50, lay at 0.0234 nM and the “GIP Receptor relative activity” value turned out to be 46.58%. Also, the “receptor activity profile (glucagon / GLP-1 / GIP agonism)” value in assay [1] was “exhibited activity at the GIP, GLP-1, and glucagon receptors”.

Regarding `CCCCCCCCCCCCCCCC(=O)NCCCC[C@H](NC(=O)[C@H](CO)NC(=O)[C@@H]1CCCN1C(=O)[C@@H]1CCCN1C(=O)[C@@H]1CCCN1C(=O)[C@H](C)NC(=O)CNC(=O)[C@H](CO)NC(=O)[C@H](CO)NC(=O)[C@@H]1CCCN1C(=O)CNC(=O)CNC(=O)[C@H](C)NC(=O)[C@H](CC(C)C)NC(=O)[C@H](CC(C)C)NC(=O)[C@H](Cc1c[nH]c2ccccc12)NC(=O)[C@H](CS)NC(=O)[C@@H](NC(=O)[C@H](Cc1ccccc1)NC(=O)[C@H](CCC(=O)O)NC(=O)C(C)(C)NC(=O)[C@H](C)NC(=O)[C@H](C)NC(=O)[C@H](CCC(N)=O)NC(=O)[C@H](CCCCN)NC(=O)[C@H](CC(=O)O)NC(=O)[C@H](CC(C)C)NC(=O)[C@H](Cc1ccc(O)cc1)NC(=O)[C@@H](NC(=O)[C@H](CO)NC(=O)[C@H](Cc1ccc(O)cc1)NC(=O)[C@H](CC(=O)O)NC(=O)[C@H](CO)NC(=O)[C@@H](NC(=O)[C@H](Cc1ccccc1)NC(=O)[C@@H](NC(=O)CNC(=O)[C@H](CCC(=O)O)NC(=O)C(C)(C)NC(=O)[C@@H](N)Cc1ccc(O)cc1)[C@@H](C)O)[C@@H](C)O)[C@@H](C)CC)C(C)C)C(N)=O` [mt-296], at glucagon receptor, a half-maximal effect (EC50) was put at 0.421 nM and the “Glucagon Receptor relative activity” value is listed as 11.34%. Further, on GLP-1 receptor, it took 0.0124 nM to reach a half-maximal effect (EC50) and the “GLP-1 Receptor relative activity” value is on record as 130.65%. Further, at GIP receptor, the “GIP Receptor relative activity” value came out at 211.69%. Further, the “receptor activity profile (glucagon / GLP-1 / GIP agonism)” value in assay [1] is “exhibited activity at the GIP, GLP-1, and glucagon receptors”.

For the compound `CCCCCCCCCCCCCCCC(=O)NCCCC[C@H](NC(=O)[C@H](CO)NC(=O)[C@@H]1CCCN1C(=O)[C@@H]1CCCN1C(=O)[C@@H]1CCCN1C(=O)[C@H](C)NC(=O)CNC(=O)[C@H](CO)NC(=O)[C@H](CO)NC(=O)[C@@H]1CCCN1C(=O)CNC(=O)CNC(=O)[C@H](CC(N)=O)NC(=O)[C@H](CCSC)NC(=O)[C@H](CC(C)C)NC(=O)[C@H](Cc1c[nH]c2ccccc12)NC(=O)[C@H](CS)NC(=O)[C@@H](NC(=O)[C@H](Cc1ccccc1)NC(=O)[C@H](CCC(=O)O)NC(=O)C(C)(C)NC(=O)[C@H](C)NC(=O)[C@H](C)NC(=O)[C@H](CCC(N)=O)NC(=O)[C@H](CCCCN)NC(=O)[C@H](CC(=O)O)NC(=O)[C@H](CC(C)C)NC(=O)[C@H](Cc1ccc(O)cc1)NC(=O)[C@@H](NC(=O)[C@H](CO)NC(=O)[C@H](Cc1ccc(O)cc1)NC(=O)[C@H](CC(=O)O)NC(=O)[C@H](CO)NC(=O)[C@@H](NC(=O)[C@H](Cc1ccccc1)NC(=O)[C@@H](NC(=O)CNC(=O)[C@H](CCC(N)=O)NC(=O)C(C)(C)NC(=O)[C@@H](N)Cc1ccc(O)cc1)[C@@H](C)O)[C@@H](C)O)[C@@H](C)CC)C(C)C)C(N)=O` [mt-297], on glucagon receptor, the EC50 stood at 0.0132 nM and the “Glucagon Receptor relative activity” value is on record as 362.12%. Also, on GLP-1 receptor, the concentration giving a half-maximal response (EC50) turned out to be 0.0129 nM and the “GLP-1 Receptor relative activity” value is on record as 125.58%. Besides, on GIP receptor, the midpoint of the response, the EC50, lay at 0.0168 nM and the “GIP Receptor relative activity” value came to 97.02%. In assay [1], the “receptor activity profile (glucagon / GLP-1 / GIP agonism)” value is “exhibited activity at the GIP, GLP-1, and glucagon receptors”.
